# Reference: patent US8017635B2, “Phenylalkyl substituted heteroaryl derivatives” (FMC Corporation, priority 2005, dated 2011)
# System: tobacco budworm (Heliothis virescens [Fabricius])
# Assay: surface-treated diet test against tobacco budworm
# Assay type: in vivo
# Conditions: 0.25 millimolar candidate insecticide on the surface of the diet, second instar larvae, five-day exposure; for Percent Growth Inhibition: inhibition of insect weight relative to untreated controls; for Percent Mortality: mortality compared to the total number of insects infested
# Description: Candidate insecticides were evaluated for activity against the tobacco budworm (Heliothis virescens [Fabricius]) in a surface-treated diet test.
# In this test one mL of molten (65-70° C.) wheat germ-based artificial diet was pipetted into each well of a four by six (24 well) multi-well plate (ID# 430345-15.5 mm diameter×17.6 mm deep; Corning Costar Corp., One Alewife Center, Cambridge, Mass. 02140). The diet was allowed to cool to ambient temperature before treatment with the candidate insecticide.
# For a determination of insecticidal activity, solutions of the candidate insecticides were prepared for testing using a Packard 204DT Multiprobe® Robotic System (Packard Instrument Company, 800 Research Parkway, Meriden, Conn. 06450), in which the robot first diluted a standard 50 millimolar DMSO solution of the candidate insecticide with a 1:1 water/acetone solution (V/V) in a ratio of 1:7 stock solution to water/acetone. The robot subsequently pipetted 40 microliters of the so-prepared solution onto the surface of the diet in each of three wells in the 24 multi-well plate. The process was repeated with solutions of seven other candidate insecticides. Once treated, the contents of the multi-well plate were allowed to dry, leaving […] of candidate insecticide on the surface of the diet, or a concentration of 0.25 millimolar. Appropriate untreated controls containing only DMSO on the diet surface were also included in this test. […]
# In each well of the test plate was placed a second instar tobacco budworm larvae, weighing approximately five milligrams. After the larvae were placed in each well, the plate was sealed with clear polyfilm adhesive tape. The tape over each well was perforated to ensure an adequate air supply. The plates were then held in a growth chamber at 25° C. and 60% relative humidity for five days (light 14 hours/day).
# After the five-day exposure period insecticidal activity for each rate of application of candidate insecticide was assessed as percent inhibition of insect weight relative to the weight of insects from untreated controls, and percent mortality when compared to the total number of insects infested.
# The test compounds of formula I are identified by numbers that correspond to those in Table 1.
Molecule,Percent Growth Inhibition [%],Percent Mortality [%]
ClC(Cl)=CCOc1cc(Cl)c(OCCn2cc(-c3ccccc3Cl)nn2)c(Cl)c1 [Compound 1-11],100,100
CN(C)c1ccc(-c2cn(CCOc3c(Cl)cc(OCC=C(Cl)Cl)cc3Cl)nn2)cc1 [Compound 1-16],91,67
"FC(F)(F)c1cccc(-c2nnn(CCOc3c(Cl)cc(OCC=C(Cl)Cl)cc3Cl)n2)c1 [Compound 7-54, 5-(3,3-dichloroprop-2-enyloxy)-1,3-dichloro-2(-2-(5-(3-trifluoromethylphenyl)(1,2,3,4-tetraazol-2-yl))ethoxy)benzene]",100,100
ClC(Cl)=CCOc1cc(Cl)c(OCCn2cnc(-c3ccccc3)c2)c(Cl)c1 [Compound 2-1],100,100
ClC(Cl)=CCOc1cc(Cl)c(OCCn2cc(CC3CCCC3)nn2)c(Cl)c1 [Compound 1-5],100,100
"FC(F)(F)c1cccc(-c2noc(COc3c(Cl)cc(OCC=C(Cl)Cl)cc3Cl)n2)c1 [Compound 14-54, 5-(3,3-dichloroprop-2-enyloxy)-1,3-dichloro-2((3-(3-trifluoromethylphenyl)(1,2,4-oxadiazol-5-yl))methoxy)benzene]",100,100
"5-(3,3-dichloroprop-2-enyloxy)-1,3-dichloro-2-(2-(4-(4-chlorophenyl)-1,2,3-triazolyl)ethoxy)benzene [Compound 1-2]",100,100
ClC(Cl)=CCOc1cc(Cl)c(OCCn2nnc(-c3ccccc3Cl)n2)c(Cl)c1 [Compound 7-55],100,100
FC(F)(F)c1cccc(-c2cn(CCOc3c(Cl)cc(OCC=C(Cl)Cl)cc3Cl)nn2)c1 [Compound 1-14],100,100
FC(F)(F)c1ccc(-c2cn(CCCOc3c(Cl)cc(OCC=C(Cl)Cl)cc3Cl)nn2)cc1 [Compound 1-9],100,100
ClC(Cl)=CCOc1cc(Cl)c(OCCn2cc(-c3ccc(Oc4ccccc4)cc3)nn2)c(Cl)c1 [Compound 1-17],100,67
FC(F)(F)c1ccc(-c2cn(CCOc3c(Cl)cc(OCC=C(Cl)Cl)cc3Cl)nn2)nc1 [Compound 1-18],100,100
ClC(Cl)=CCOc1cc(Cl)c(OCCn2cc(Cc3ccccc3)nn2)c(Cl)c1 [Compound 1-4],100,100
ClC(Cl)=CCOc1cc(Cl)c(OCCn2cc(-c3ccc(Cl)c(Cl)c3)nn2)c(Cl)c1 [Compound 1-3],100,100
ClC(Cl)=CCOc1cc(Cl)c(OCCn2nnc(-c3ccccc3)n2)c(Cl)c1 [Compound 7-1],100,100
FC(F)(F)c1ccc(-c2nnn(CCOc3c(Cl)cc(OCC=C(Cl)Cl)cc3Cl)n2)cc1 [Compound 7-2],100,100
CC(C)(C)c1cn(CCOc2c(Cl)cc(OCC=C(Cl)Cl)cc2Cl)nn1 [Compound 1-7],100,100
C[Si](C)(C)c1cn(CCCOc2c(Cl)cc(OCC=C(Cl)Cl)cc2Cl)nn1 [Compound 1-19],100,100
ClC(Cl)=CCOc1cc(Cl)c(OCCn2cc(-c3ccc(Cl)cc3Cl)nn2)c(Cl)c1 [Compound 1-8],33,0
CC(C)Cc1cn(CCOc2c(Cl)cc(OCC=C(Cl)Cl)cc2Cl)nn1 [Compound 1-6],49,0
FC(F)(F)c1ccc(OCc2cn(CCOc3c(Cl)cc(OCC=C(Cl)Cl)cc3Cl)nn2)cc1 [Compound 1-69],71,17
ClC(Cl)=CCOc1cc(Cl)c(OCCn2nnc(-c3cccc(Cl)c3)n2)c(Cl)c1 [Compound 7-56],100,100
FC(F)(F)c1ccc(-c2cn(CCOc3c(Cl)cc(OCC=C(Cl)Cl)cc3Cl)nn2)cc1 [Compound 1-1],100,100
Fc1ccc(-c2cn(CCOc3c(Cl)cc(OCC=C(Cl)Cl)cc3Cl)nn2)c(F)c1 [Compound 1-15],100,100
"FC(F)(F)c1ccc(-c2n[nH]c(CCOc3c(Cl)cc(OCC=C(Cl)Cl)cc3Cl)n2)cc1 [Compound 8-2, 5-(3,3-dichloroprop-2-enyloxy)-1,3-dichloro-2-(2-(3-(4-trifluoromethylphenyl)(1,2,4-triazolyl))ethoxy)benzene]",100,100
ClC(Cl)=CCOc1cc(Cl)c(OCCn2cc(-c3cccc(Cl)c3)nn2)c(Cl)c1 [Compound 1-12],100,100
